52 compounds from US10252984B2, “Inhibiting G protein coupled receptor 6 kinase polypeptides” (Mayo Foundation for Medical Education and Research, priority 2011, dated 2019) can be followed below.

Structures are written as SMILES.

Chain of GRK6, recombinant full-length GST-tagged human protein (P43250 whole entry): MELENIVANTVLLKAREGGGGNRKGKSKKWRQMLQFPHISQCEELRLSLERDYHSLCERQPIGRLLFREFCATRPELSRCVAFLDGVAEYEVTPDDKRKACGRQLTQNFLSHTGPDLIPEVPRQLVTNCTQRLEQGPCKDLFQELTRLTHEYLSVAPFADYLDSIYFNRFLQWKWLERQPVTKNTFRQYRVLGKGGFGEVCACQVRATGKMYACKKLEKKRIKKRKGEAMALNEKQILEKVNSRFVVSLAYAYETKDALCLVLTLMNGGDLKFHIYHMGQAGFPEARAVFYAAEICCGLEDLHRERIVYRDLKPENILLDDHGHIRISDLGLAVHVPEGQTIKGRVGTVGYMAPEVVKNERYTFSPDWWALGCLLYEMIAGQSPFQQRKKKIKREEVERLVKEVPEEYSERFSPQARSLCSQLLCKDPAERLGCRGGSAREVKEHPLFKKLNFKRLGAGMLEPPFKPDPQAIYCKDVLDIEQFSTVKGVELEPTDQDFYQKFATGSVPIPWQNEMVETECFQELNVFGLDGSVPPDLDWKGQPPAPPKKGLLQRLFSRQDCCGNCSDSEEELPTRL

One assay concerns the target GRK6, recombinant full-length GST-tagged human protein (Homo sapiens (Human), UniProt P43250). Put plainly: GRK6 LabChip microfluidic mobility shift kinase assay. It counts as biochemical. To be noted: 8-point concentration-response, top concentration 60 μM, ATP 12 μM (Km). Here is the method:
[…] All determinations were performed in duplicates. To obtain the IC50 values and the Hill coefficient, the 4-parameter logistic equation was fitted to the data by non-linear regression using XLFit software.
For `CCOC(=O)c1ccc(CC(=O)c2ccc(O)c(O)c2O)o1`, the IC50 (usually the concentration needed to halve the response being measured) is 7.05 µM.
For the compound `O=c1cc(-c2ccc(O)cc2)oc2cc(O)c(O)c(O)c12`, the 50% inhibitory concentration (IC50) turned out to be 6.61 µM.
On the same count and under the same terms, the result for `COc1cc(/C=C2/SC(=S)N(c3cccnc3)C2=O)ccc1O` reads 40.6 µM; that for `Oc1ccc(-c2nc3ccc4ccccc4c3c3c2CCC3)cc1O`, 28.4 µM.
Take `CCN(CC)c1ccc(C2Nc3cccc4cccc(c34)N2)c(O)c1`: the 50% inhibitory concentration (IC50) is 8.44 µM.
For `Cc1cc(NC(c2ccccn2)c2ccc3cccnc3c2O)no1` (stereo not drawn), the IC50 is 6.45 µM.
`Cc1cccc(NC2=NC(=O)/C(=C/c3ccc(O)c(O)c3)S2)c1C`: the half-maximal inhibitory concentration (IC50) was 7.11 µM.
As to `Oc1c(C(Nc2ccccn2)c2cccnc2)ccc2cccnc12` (stereo not drawn), the IC50 is 6.75 µM.
As for `CCOc1ccc(NC(c2ccccn2)c2ccc3cccnc3c2O)cc1` (stereo not drawn), the IC50 was determined as 4.48 µM.
`Cc1nc2ccccn2c1-c1csc(Nc2ccc(N)cc2)n1`: the 50% inhibitory concentration (IC50) was above 60 µM.
Take `CCn1c(COc2ccccc2)nnc1SCCC(=O)O`: the half-maximal inhibitory concentration (IC50) was above 60 µM.
Turning to `N#CC1=C(N)Oc2cc(N)ccc2C1c1cc2cc3c(cc2nc1Cl)OCO3` (stereo not drawn), the half-maximal inhibitory concentration (IC50) turned out to be 6.48 µM.
With `Cc1ccc(-c2ccccc2NS(=O)(=O)c2ccc(S(=O)(=O)N3CCCCCC3)cc2)o1`, the half-inhibitory concentration (IC50) was above 60 µM.
Take `O=S(=O)(Nc1ccc(-n2cnnn2)cc1)c1ccc(S(=O)(=O)N2CCCCCC2)cc1`: the IC50 is above 60 µM.
With `CCNC(=S)N(CCO)Cc1cc2cc3c(cc2[nH]c1=O)OCO3`, the IC50 is above 60 µM.
Consider `CCOc1cc(-c2ccc(O)c(O)c2)cc(=O)c2c(C)oc(C)c12`, for which the IC50 stood at 4.41 µM.
As to `N#CC1=C(N)Oc2cc(N)ccc2C1c1cccs1` (stereo not drawn), the half-maximal inhibitory concentration (IC50) came to 11.8 µM.
Consider `NC(=O)c1cc(N)c2c(c1N)C(=O)c1ccccc1C2=O`, for which the IC50 was 12.7 µM.
Turning to `O=C1Nc2ccc(S(=O)(=O)N3CCCCC3)c3cccc1c23`, the 50% inhibitory concentration (IC50) is above 60 µM.
With `Cc1ccc(C2C(C#N)=C(N)Oc3cc(N)ccc32)cc1` (stereo not drawn), the IC50 was found to be 26 µM.
Same read-out and setting: to `CC(=O)Nc1ccc(Nc2nnc(-c3ccc(O)cc3)c3ccccc23)cc1` belongs above 60 µM; to `COCCNC(=O)CN(C(=O)c1snc(C(N)=O)c1N)c1ccccc1`, above 60 µM; to `CCOc1cccc(=O)c2c(C)[nH]c(C)c12`, 2.55 µM.
With `Cc1cc2c(C(C)C)c(O)c(O)c(/C=N/CCCN3CCOCC3)c2c(O)c1-c1c(C)cc2c(C(C)C)c(O)c(O)c(/C=N/CCCN3CCOCC3)c2c1O`, the IC50 stood at 10.1 µM.
On to `Nc1ccc2c3c1C(=O)OC3(O)c1ccccc1C2=O` (stereo not drawn), for which the IC50 was determined as 47 µM.
The same measure, in the same setting: the result for `Cc1cc2c(c(O)c1-c1c(C)cc3c(c1O)/C(=C/NCCCN1CCOCC1)C(=O)C(O)=C3C(C)C)/C(=C/NCCCN1CCOCC1)C(=O)C(O)=C2C(C)C` reads 16.9 µM; that for `CCN(CC)CCn1c2ccccc2c2cnc(N)c(C#N)c21`, 18.8 µM.
For the compound `CCN(CC)c1ccc(C(c2c(C)n[nH]c2O)c2c(C)n[nH]c2O)cc1`, the IC50 stood at 9.93 µM.
On the same count and under the same terms, the result for `CCOC(=O)c1c(N)n(C2CC2)c2nc3ccccc3nc12` reads 2.83 µM; that for `CCCCC(CC)CNC(=O)c1ccc(N/N=C2\C(=O)Nc3ccc(Br)cc32)cc1` (stereo not drawn), above 60 µM.
On to `CN(C)c1ccc(O)c2c1CC1CC3[C@H](N(C)C)C(O)=C(C(N)=O)C(=O)[C@@]3(O)C(O)=C1C2=O` (stereo partly drawn), for which the IC50 is 1.37 µM.
Turning to `O=c1cc(-c2ccccc2)oc2cc(O)c(O)c(O)c12`, the IC50 amounted to 8.7 µM.
For the compound `Cc1ccc([N+](=O)[O-])c(NC2OC(CO)C(O)C2O)c1` (stereo not drawn), the IC50 is 12 µM.
The same measure, in the same setting: to `CCOc1cccc(=O)c2c(C)n(-c3ccc(C)cc3)c(C)c12` belongs 3.4 µM; to `COc1ccc(-c2cc(=O)oc3c(O)c(O)ccc23)cc1`, 7.16 µM; to `C=CCn1c(N)c(C(=O)OC)c2nc3ccccc3nc21`, 0.973 µM.
With `CCCCn1c(N)c(C#N)c2nc3ccccc3nc21`, the IC50 was 1.56 µM.
Same read-out and setting: to `CCCCCn1c(N)c(C(=O)OC)c2nc3ccccc3nc21` belongs 1.03 µM.
On the same count and under the same terms, to `CCCCCCn1c(N)c(C(=O)OC)c2nc3ccccc3nc21` belongs 1.43 µM.
`O=C(O)c1ccc([C@@H]2Nc3ccc(I)cc3[C@@H]3C=CC[C@@H]32)cc1`: the IC50 was found to be 6.66 µM.
Still for that read-out and setting: to `O=[N+]([O-])c1cc(C2=NN=C(NCc3ccco3)SC2)ccc1Cl` belongs 6.62 µM; to `c1ccc(-c2ccc(C3=NN=C(NCc4ccco4)SC3)cc2)cc1`, 10.4 µM.
Take `Oc1ccc(-c2nnc(NCCc3ccccc3)s2)cc1`: the concentration for half-maximal inhibition (IC50) is above 60 µM.
Turning to `Cc1cccc(-c2nnc(SCC(=O)O)[nH]2)c1`, the IC50 amounted to 1.44 µM.
Consider `O=C(O)CSc1nnc(-c2ccc(OC(F)(F)F)cc2)[nH]1`, for which the half-maximal inhibitory concentration (IC50) was 5.92 µM.
Regarding `O=C(O)CSc1nnc(-c2cccs2)[nH]1`, the IC50 stood at 4.6 µM.
For `Cc1ccc2nc(NC=O)sc2c1`, the 50% inhibitory concentration (IC50) is above 60 µM.
With `Nc1ccc(CCc2nc3cc(N)ccc3o2)cc1`, the IC50 is 17.8 µM.
On to `C1=Nc2cccc3cccc(c23)N1`, for which the IC50 worked out at 12.5 µM.
Regarding `COc1ccc(-c2cnc(-c3cccnc3)o2)cc1`, the IC50 was above 60 µM.

Staying with this assay, now noted: GRK6 polypeptide inhibition assay, class symbols.
With `Cc1ccc(-c2ccccc2NS(=O)(=O)c2ccc(S(=O)(=O)N3CCCCCC3)cc2)o1`, the half-maximal inhibitory concentration (IC50) was above 20 µM.
Regarding `Cc1ccc([N+](=O)[O-])c(NC2OC(CO)C(O)C2O)c1` (stereo not drawn), the IC50 was 10.1 to 20 µM.

Still in this assay, the particulars now being: at ATP Km, 12-pt dose response, duplicates; values only in FIG. 1.
For the compound `O=S(=O)(NCCNC/C=C/c1ccc(Br)cc1)c1cccc2cnccc12` [H89, reference compound], the “IC50 values of model inhibitors” value is reported as “in good agreement with published data”.
`Cn1cc(C2=C(c3cn(CCCSC(=N)N)c4ccccc34)C(=O)NC2=O)c2ccccc21` [Ro-31-8220, reference compound]: the “IC50 values of model inhibitors” value is on record as “in good agreement with published data”.
